Assay results published in patent US20250042889A1, “3CLPRO PROTEASE INHIBITOR” (SHANGHAI QILU PHARMACEUTICAL RESEARCH AND DEVELOPMENT …, priority 2021, published 2025).

Target: SARS-COV-2 3CLpro/Mpro protease (Severe acute respiratory syndrome coronavirus 2 (2019-nCoV) (SARS-CoV-2), UniProt P0DTD1)
Assay: Inhibitory effect on SARS-COV-2 3CLpro/Mpro protease by fluorescence resonance energy transfer
Type: biochemical
Settings: activity intervals A-D, read-out: IC50 (nM), Inhibition on SARS-CoV-2 3CLpro/Mpro protease

| SMILES | IC50 |
| --- | --- |
| Cc1cc(C(=O)N2CCC[C@@H](Nc3c(C(=O)N4CCC(F)(F)CC4)cc(Br)cc3[N+](=O)[O-])C2)cc(=O)[nH]1 [Example 108] | 10 to 50 nM |
| O=C(N[C@H]1CCCC[C@H]1Nc1c(C(=O)N2CCC(N3CCOCC3)CC2)cc(Br)cc1C(F)(F)F)c1cncc2cc(Cl)ccc12 [Example 109] | 10 to 50 nM |
| COCCN1CCN(C(=O)c2cc(Br)cc([N+](=O)[O-])c2N[C@@H]2CCCC[C@@H]2NC(=O)c2cncc3cc(Cl)ccc23)CC1 [Example 111] | < 10 nM |
| C[C@@H]1CN(C(=O)c2cc(Br)cc(C(F)(F)F)c2N[C@@H]2CCCC[C@@H]2NC(=O)c2cncc3cc(Cl)ccc23)C[C@H](C)O1 [Example 112] | 10 to 50 nM |
| C[C@@H]1CN(C(=O)c2cc(Br)cc([N+](=O)[O-])c2N[C@@H]2CCCC[C@@H]2NC(=O)c2cncc3cc(Cl)ccc23)C[C@H](C)O1 [Example 113] | < 10 nM |
| Nc1cncc(C(=O)N2CCC[C@@H](Nc3c(C(=O)N4CCOCC4)cc(Br)cc3[N+](=O)[O-])C2)c1 [Example 114] | 10 to 50 nM |
| C[C@@H]1CN(C(=O)c2cc(Br)cc([N+](=O)[O-])c2N[C@@H]2CCCN(C(=O)c3cncc(I)c3)C2)C[C@H](C)N1 [Example 115] | 10 to 50 nM |
| O=C(c1cc(Br)cc([N+](=O)[O-])c1N[C@@H]1CCCN(C(=O)c2cc(=O)[nH]c3ccccc23)C1)N1CCCCC1 [Example 116] | < 10 nM |
| O=C(c1cc(Br)cc([N+](=O)[O-])c1N[C@@H]1CCCN(C(=O)c2cc(=O)[nH]c3cc(Cl)ccc23)C1)N1CCOCC1 [Example 117] | 10 to 50 nM |
| O=C(N[C@H]1CCCC[C@H]1Nc1c(C(=O)N2CCN(CCO)CC2)cc(Br)cc1[N+](=O)[O-])c1cncc2cc(Cl)ccc12 [Example 118] | 10 to 50 nM |
| O=C(c1cc(Br)cc([N+](=O)[O-])c1N[C@@H]1CCCN(C(=O)c2cc(=O)[nH]c3ccccc23)C1)N1CCOCC1 [Example 119] | 10 to 50 nM |
| COCCN1CCN(C(=O)c2cc(Br)cc([N+](=O)[O-])c2N[C@@H]2CCCN(C(=O)c3cncc(I)c3)C2)CC1 [Example 120] | < 10 nM |
| C[C@@H]1CN(C(=O)c2cc(Br)cc([N+](=O)[O-])c2N[C@@H]2CCCC[C@@H]2NC(=O)c2cc(=O)[nH]c3ccccc23)C[C@H](C)O1 [Example 121] | < 10 nM |
| O=C(N[C@H]1CCCC[C@H]1Nc1c(C(=O)N2C[C@@H](O)CO2)cc(Br)cc1[N+](=O)[O-])c1cncc2cc(Cl)ccc12 [Example 122] | 10 to 50 nM |
| CN1CCN(C(=O)c2cc(Br)cc([N+](=O)[O-])c2N[C@@H]2CCCC[C@@H]2NC(=O)c2cncc3cc(Cl)ccc23)CC1 [Example 123] | < 10 nM |
| O=C(N[C@H]1CCCC[C@H]1Nc1c(C(=O)N2CC3(CCOCC3)C2)cc(Br)cc1[N+](=O)[O-])c1cncc2cc(Cl)ccc12 [Example 124] | 10 to 50 nM |
| C[C@@H]1CN(C(=O)c2cc(Br)cc([N+](=O)[O-])c2N[C@@H]2CCN(C(=O)c3cncc4cc(Cl)ccc34)C2)C[C@H](C)N1 [Example 125] | < 10 nM |
| O=C(N[C@H]1CCCC[C@H]1Nc1c(C(=O)N2CC[C@@H](O)C2)cc(Br)cc1C(F)(F)F)c1cncc2cc(Cl)ccc12 [Example 126] | 10 to 50 nM |
| O=C(c1cc(Br)cc([N+](=O)[O-])c1N[C@@H]1CCCN(C(=O)c2cc(=O)[nH]c3cc(Cl)ccc23)C1)N1CCCCC1 [Example 128] | 10 to 50 nM |
| C[C@@H]1CN(C(=O)c2cc(Br)cc([N+](=O)[O-])c2N[C@@H]2CCCN(C(=O)c3cc(=O)[nH]c4cc(Cl)ccc34)C2)C[C@H](C)O1 [Example 129] | 10 to 50 nM |
| C[C@H]1CN(C(=O)c2cc(Br)cc([N+](=O)[O-])c2N[C@@H]2CCCN(C(=O)c3cc(=O)[nH]c4ccccc34)C2)CCO1 [Example 130] | 10 to 50 nM |

| SMILES | IC50 |
| --- | --- |
| C[C@@H]1CN(C(=O)c2cc(Br)cc([N+](=O)[O-])c2N[C@@H]2CCCC[C@@H]2NC(=O)c2cncc3cc(Cl)ccc23)C[C@H](C)N1 [Example 131] | 10 to 50 nM |
| O=C(N[C@H]1CCCC[C@H]1Nc1c(C(=O)N2CCC3(CC2)COC3)cc(Br)cc1[N+](=O)[O-])c1cncc2cc(Cl)ccc12 [Example 132] | 10 to 50 nM |
| C[C@@H]1CN(C(=O)c2cc(Br)cc([N+](=O)[O-])c2N[C@@H]2CCCN(C(=O)c3cc(=O)[nH]c4ccccc34)C2)C[C@H](C)O1 [Example 133] | 10 to 50 nM |
| O=C(c1cc(Br)cc([N+](=O)[O-])c1N[C@@H]1CCCN(C(=O)c2cc(=O)[nH]c3ccccc23)C1)N1CCC(N2CCOCC2)CC1 [Example 134] | 10 to 50 nM |
| C[C@@H]1CN(C(=O)c2cc(Br)cc([N+](=O)[O-])c2N[C@@H]2CCCN(C(=O)c3cncc4cc(Cl)ccc34)C2)C[C@H](C)N1 [Example 135] | 10 to 50 nM |
| O=C(N[C@H]1CCCC[C@H]1Nc1c(C(=O)N2CCC(N3CCOCC3)CC2)cc(Br)cc1[N+](=O)[O-])c1cc(=O)[nH]c2ccccc12 [Example 136] | < 10 nM |
| O=C(NN1CCOCC1)c1cc(Br)cc([N+](=O)[O-])c1N[C@@H]1CCCN(C(=O)c2cncc(I)c2)C1 [Example 137] | 10 to 50 nM |
| O=C(c1cc(Br)cc([N+](=O)[O-])c1N[C@@H]1CCCN(C(=O)c2cc(=O)[nH]c3ccccc23)C1)N1CCN(CC(F)(F)F)CC1 [Example 138] | 10 to 50 nM |
| C[C@@H]1CN(C(=O)c2cc(Br)cc([N+](=O)[O-])c2N[C@@H]2CCCN(C(=O)c3cc(=O)[nH]c4ccccc34)C2)C[C@H](C)N1 [Example 139] | 10 to 50 nM |
| C[C@@H]1CN(C(=O)c2cc(Br)cc([N+](=O)[O-])c2N[C@@H]2CCCN(C(=O)c3cc(=O)[nH]c4ccccc34)C2)CCO1 [Example 140] | 10 to 50 nM |
| N[C@@H]1C[C@H](O)CN(C(=O)c2cc(Br)cc([N+](=O)[O-])c2N[C@@H]2CCCC[C@@H]2NC(=O)c2cncc3ccccc23)C1 [Example 141] | 10 to 50 nM |
| O=C(c1cc(Br)cc([N+](=O)[O-])c1N[C@@H]1CCCN(C(=O)C2CNCc3ccccc32)C1)N1CCOCC1 (stereo partly drawn) [Example 142] | 10 to 50 nM |
| O=C(N[C@H]1CCCC[C@H]1Nc1c(C(=O)N2CCNCC2)cc(Br)cc1C(F)(F)F)c1cncc2cc(Cl)ccc12 [Example 143] | 10 to 50 nM |
| C[C@@H]1CN(C(=O)c2cc(Br)cc([N+](=O)[O-])c2N[C@@H]2CCCN(C(=O)c3cncc4[nH]ncc34)C2)C[C@H](C)O1 [Example 144] | 10 to 50 nM |
| C[C@@H]1CN(C(=O)c2cc(Br)cc([N+](=O)[O-])c2N[C@@H]2CCCN(C(=O)C3CCCOC3)C2)C[C@H](C)O1 (stereo partly drawn) [Example 145] | 10 to 50 nM |
| Cc1cc(C(=O)N2CCC[C@@H](Nc3c(C(=O)N4CCN(CC(F)(F)F)CC4)cc(Br)cc3[N+](=O)[O-])C2)cc(=O)[nH]1 [Example 146] | 10 to 50 nM |
| O=C(N[C@H]1CCCC[C@H]1Nc1c(C(=O)N2CCC(O)CC2)cc(Br)cc1C(F)(F)F)c1cncc2cc(Cl)ccc12 [Example 147] | 10 to 50 nM |
| Cc1cc(C(=O)N2CCC[C@@H](Nc3c(C(=O)N4CC5CC5C4)cc(Br)cc3[N+](=O)[O-])C2)cc(=O)[nH]1 (stereo partly drawn) [Example 148] | 50 to 100 nM |
| Cc1cc(C(=O)N2CCC[C@@H](Nc3c(C(=O)N4CCCCC4)cc(Br)cc3[N+](=O)[O-])C2)cc(=O)[nH]1 [Example 149] | 10 to 50 nM |
| O=C(c1cc(Br)[nH]c(=O)c1)N1CCC[C@@H](Nc2c(C(=O)N3CCC(F)(F)CC3)cc(Br)cc2[N+](=O)[O-])C1 [Example 150] | 50 to 100 nM |
| C[C@@H]1CN(C(=O)c2cc(Br)cc([N+](=O)[O-])c2N[C@@H]2CCCN(C(=O)c3cncc4[nH]cnc34)C2)C[C@H](C)O1 [Example 151] | 10 to 50 nM |
